Columns and labels:
Experiment in all cases: In vitro antifungal activity, microbroth dilution MIC
Format in all cases: cell-based
[1] = tested on: Aspergillus furnigatus B. 19119; conditions: for Minimal inhibitory concentration(MIC), A furnigatus B. 19119: RPMI-1640, 35° C., no growth observed
How it was run: (§1)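 Broth microdilution adapted from NCCLS M27, in RPMI-1640 with 0.165 M MOPS, pH 7.0. Yeast or mould inoculum at 2×10^3 CFU/ml was mixed 1:1 with DMSO-derived compound solutions (200 to 0.10 μg/ml before mixing) and incubated at 35 °C for 4 to 48 h. MIC was the concentration showing no growth.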

[2] = tested on: Aspergillus niger A. 16404; conditions: for Minimal inhibitory concentration(MIC), A. niger A. 16404: RPMI-1640, 35° C., no growth observed
How it was run: as §1

[3] = tested on: Candida albicans A. 10231; conditions: 4 to 48 hours; for Minimal inhibitory concentration(MIC), C. albicans A. 10231: RPMI-1640, 35° C., no growth observed
How it was run: as §1

Candida albicans C1-2 = conditions: 4 to 48 hours; for Minimal inhibitory concentration(MIC), C. albicans C1-2: RPMI-1640, 35° C., no growth observed
How it was run: as §1

[4] = tested on: Candida albicans IFO. 1385; conditions: 4 to 48 hours; for Minimal inhibitory concentration(MIC), C. albicans IFO. 1385: RPMI-1640, 35° C., no growth observed
How it was run: as §1

Candida krusei K. 11655 = conditions: 4 to 48 hours; for Minimal inhibitory concentration(MIC), C. krusei K. 11655: RPMI-1640, 35° C., no growth observed
How it was run: as §1

[5] = tested on: Candida parapsitosis A. 7330; conditions: 4 to 48 hours; for Minimal inhibitory concentration(MIC), C. parapsitosis A. 7330: RPMI-1640, 35° C., no growth observed
How it was run: as §1

[6] = tested on: Candida pseudotropicalis K. 11658; conditions: 4 to 48 hours; for Minimal inhibitory concentration(MIC), C. pseudotropicalis K. 11658: RPMI-1640, 35° C., no growth observed
How it was run: as §1

[7] = tested on: Candida tropicalis A. 13803; conditions: 4 to 48 hours; for Minimal inhibitory concentration(MIC), C. tropicalis A. 13803: RPMI-1640, 35° C., no growth observed
How it was run: as §1

[8] = tested on: Cryptococcus neoformans A. 34144; conditions: for Minimal inhibitory concentration(MIC), Cry. neoformans A. 34144: RPMI-1640, 35° C., no growth observed
How it was run: as §1

[9] = tested on: Cryptococcus neoformans B. 42419; conditions: 4 to 48 hours; for Minimal inhibitory concentration(MIC), Cry. neoformans B. 42419: RPMI-1640, 35° C., no growth observed
How it was run: as §1

[10] = tested on: Cryptococcus neoformans IFM. 40092; conditions: for Minimal inhibitory concentration(MIC), Cry. neoformans IFM. 40092: RPMI-1640, 35° C., no growth observed
How it was run: as §1

[11] = tested on: Torulopsis glabrata B. 16205; conditions: 4 to 48 hours; for Minimal inhibitory concentration(MIC), T. glabrata B. 16205: RPMI-1640, 35° C., no growth observed
How it was run: as §1

[12] = tested on: Trichophyton mentagrophytes A. 9129; conditions: for Minimal inhibitory concentration(MIC), T. mentagrophytes A. 9129: RPMI-1640, 35° C., no growth observed
How it was run: as §1

[13] = tested on: Trichophyton mentagrophytes B. 32663; conditions: for Minimal inhibitory concentration(MIC), T. mentagrophytes B. 32663: RPMI-1640, 35° C., no growth observed
How it was run: as §1

Minimal inhibitory concentration(MIC), C. albicans A. 10231 [3] [µg/mL]	Minimal inhibitory concentration(MIC), C. albicans C1-2 (Candida albicans C1-2) [µg/mL]	Minimal inhibitory concentration(MIC), C. albicans IFO. 1385 [4] [µg/mL]	Minimal inhibitory concentration(MIC), C. krusei K. 11655 (Candida krusei K. 11655) [µg/mL]	Minimal inhibitory concentration(MIC), C. parapsitosis A. 7330 [5] [µg/mL]	Minimal inhibitory concentration(MIC), C. pseudotropicalis K. 11658 [6] [µg/mL]	Minimal inhibitory concentration(MIC), C. tropicalis A. 13803 [7] [µg/mL]	Minimal inhibitory concentration(MIC), Cry. neoformans B. 42419 [9] [µg/mL]	Minimal inhibitory concentration(MIC), T. glabrata B. 16205 [11] [µg/mL]	Minimal inhibitory concentration(MIC), A furnigatus B. 19119 ([1]; 4 to 48 hours) [µg/mL]	Minimal inhibitory concentration(MIC), A. niger A. 16404 ([2]; 4 to 48 hours) [µg/mL]	Minimal inhibitory concentration(MIC), Cry. neoformans A. 34144 ([8]; 4 to 48 hours) [µg/mL]	Minimal inhibitory concentration(MIC), Cry. neoformans IFM. 40092 ([10]; 4 to 48 hours) [µg/mL]	Minimal inhibitory concentration(MIC), T. mentagrophytes A. 9129 ([12]; 4 to 48 hours) [µg/mL]	Minimal inhibitory concentration(MIC), T. mentagrophytes B. 32663 ([13]; 4 to 48 hours) [µg/mL]	SMILES	further results
															FC(=Cc1ccc(Cl)cc1)OCC1COC(Cn2ccnc2)(c2ccc(F)cc2F)O1 (mixture of isomers) [Ex. 47]	Minimal inhibitory concentration (MIC) ([1]; A furnigatus B. 19119, RPMI-1640, 35° C., 4 to 48 hours): 1.56 µg/mL; Minimal inhibitory concentration (MIC) ([2]; A. niger A. 16404, RPMI-1640, 35° C., 4 to 48 hours): 6.25 µg/mL; Minimal inhibitory concentration (MIC) ([3]; C. albicans A. 10231, RPMI-1640, 35° C.): 12.5 µg/mL; Minimal inhibitory concentration (MIC) (Candida albicans C1-2; C. albicans C1-2, RPMI-1640, 35° C.): 12.5 µg/mL; Minimal inhibitory concentration (MIC) ([4]; C. albicans IFO. 1385, RPMI-1640, 35° C.): 0.20 µg/mL; Minimal inhibitory concentration (MIC) (Candida krusei K. 11655; C. krusei K. 11655, RPMI-1640, 35° C.): 12.5 µg/mL; Minimal inhibitory concentration (MIC) ([5]; C. parapsitosis A. 7330, RPMI-1640, 35° C.): 6.25 µg/mL; Minimal inhibitory concentration (MIC) ([6]; C. pseudotropicalis K. 11658, RPMI-1640, 35° C.): 6.25 µg/mL; Minimal inhibitory concentration (MIC) ([7]; C. tropicalis A. 13803, RPMI-1640, 35° C.): 25.0 µg/mL; Minimal inhibitory concentration (MIC) ([8]; Cry. neoformans A. 34144, RPMI-1640, 35° C., 4 to 48 hours): 0.78 µg/mL; Minimal inhibitory concentration (MIC) ([9]; Cry. neoformans B. 42419, RPMI-1640, 35° C.): 0.78 µg/mL; Minimal inhibitory concentration (MIC) ([10]; Cry. neoformans IFM. 40092, RPMI-1640, 35° C., 4 to 48 hours): ≦0.10 μg/ml; Minimal inhibitory concentration (MIC) ([11]; T. glabrata B. 16205, RPMI-1640, 35° C.): 6.25 µg/mL; Minimal inhibitory concentration (MIC) ([12]; T. mentagrophytes A. 9129, RPMI-1640, 35° C., 4 to 48 hours): 0.39 µg/mL; Minimal inhibitory concentration (MIC) ([13]; T. mentagrophytes B. 32663, RPMI-1640, 35° C., 4 to 48 hours): ≦0.10 μg/ml
>100	>100	3.13	6.25	3.13	6.25	>100	3.13	100							FC(=C(c1ccc(C(F)(F)F)cc1)C(F)(F)F)N1CCN(c2ccc(OCC3COC(Cn4ccnc4)(c4ccc(F)cc4F)O3)cc2)CC1 (mixture of isomers) [Ex. 142]	Minimal inhibitory concentration(MIC), A furnigatus B. 19119 [1]: 50.0 µg/mL; Minimal inhibitory concentration(MIC), A. niger A. 16404 [2]: 100 µg/mL; Minimal inhibitory concentration(MIC), Cry. neoformans A. 34144 [8]: 3.13 µg/mL; Minimal inhibitory concentration(MIC), Cry. neoformans IFM. 40092 [10]: 0.39 µg/mL; Minimal inhibitory concentration(MIC), T. mentagrophytes A. 9129 [12]: 12.5 µg/mL; Minimal inhibitory concentration(MIC), T. mentagrophytes B. 32663 [13]: 1.56 µg/mL
>100	>100	12.5	>100	>100	>100	>100	3.13	>100	>100	>100	3.13	0.39	>100	>100	Cc1ccc(C(=C(F)OCC2COC(Cn3cncn3)(c3ccc(Cl)cc3Cl)O2)C(F)(F)F)cc1C (mixture of isomers) [Ex. 82]	
25.0	12.5	1.56	>100	>100	25.0	100	1.56	50.0	>100	>100	1.56	0.39	6.25	3.13	COc1ccc(C=C(F)Oc2ccc(OCC3COC(Cn4cncn4)(c4ccc(Cl)cc4Cl)O3)cc2)cc1 (mixture of isomers) [Ex. 118]	
